Laboratory results as given in publication PMC12389534, “Unlocking Therapeutic Potential of Novel Thieno-Oxazepine Hybrids as Multi-Target Inhibitors of AChE/BChE and Evaluation Against Alzheimer’s Disease: In Vivo, In Vitro, Histopathological, and Docking Studies” (Pharmaceuticals, 2025).

Tests used:
[1] = system: Nrf-2; assay: Nrf-2 mRNA expression (RT-qPCR); format: in vivo, rat; settings: AlCl3-induced AD rats
Experimental: (§1) The brain tissues of the rats were removed and rigorously washed in isotonic saline 24 h after they were euthanized following the last behavioral test. For histological investigation, four brains per group were preserved for the whole night in 10% neutral buffered formalin. The remaining six brains were split into two sections each. In order to create a 10% homogenate (w/v), the first component was instantaneously homogenized using an ice-cold solution that included 300 mM sucrose and 50 mM Tris-HCl (pH 7.4). The homogenate was centrifuged at 1800× g for 10 min at 4 °C for biochemical tests, and the supernatant was thereafter kept at −20 °C. The second portion was set aside for use in RT-PCR analysis at −80 °C [94].
(§2) See Supplementary Information.

[2] = system: TNF-α; assay: Brain TNF-α level (ELISA); format: in vivo, rat; settings: AlCl3-induced AD rats
Experimental: as §1, with “[94]. […]” for “[94].”

[3] = system: Bcl-2; assay: Bcl-2 gene expression (RT-qPCR); format: in vivo, rat; settings: AlCl3-induced AD rats
Experimental: as §1, §2

[4] = system: NE; assay: Brain NE level (fluorometric); format: in vivo, rat; settings: AlCl3-induced AD rats
Experimental: as §1
(§3) Brain monoamine levels were promptly assessed following the rats’ euthanasia to prevent changes in the substance’s concentration. Dopamine (DA), norepinephrine (NE), and serotonin (5-HT) fluorometric tests were conducted on brain tissue homogenate using the Ciarlone method. […] The concentrations were articulated as nanograms per gram of fresh tissue using the fluorescence of reference solutions [95].

[5] = system: HO-1; assay: HO-1 mRNA expression (RT-qPCR); format: in vivo, rat; settings: AlCl3-induced AD rats
Experimental: as §1, §2

[6] = system: SOD; assay: Brain SOD activity (colorimetric); format: in vivo, rat; settings: brain tissue, AlCl3-induced AD rats; mean ± SE, n = 6
Experimental: as §1
(§4) The SOD enzyme activity was estimated using the Marklund et al. method, which is founded on the enzyme’s capacity to decrease the nitro blue tetrazolium dye at a wavelength of 540 nm. To evaluate the TAC, a colorimetric approach was employed to estimate the amount of hydrogen peroxide that remains after 3,5-dichloro-2-hydroxybenzene sulphonate is converted to a colored product at 660 nm.

[7] = system: GSK3β; assay: GSK3β gene expression (RT-qPCR); format: in vivo, rat; settings: gene expression; AlCl3-induced AD rats; mean ± SE, n = 6
Experimental: as §1, §2

[8] = system: MDA; assay: Brain MDA content (thiobarbituric acid method); format: in vivo, rat; design: reduction in MDA brain content: concentration or dose not given beside the values; settings: AlCl3-induced AD rats
[9] = system: β-catenin; assay: Brain β-catenin level; format: in vivo, rat; settings: AlCl3-induced AD rats
Experimental: as §1, §2

[10] = system: TAC; assay: Brain TAC (colorimetric); format: in vivo, rat; settings: AlCl3-induced AD rats
Experimental: as §1, §4

[11] = system: Wnt3a; assay: Brain Wnt3a level; format: in vivo, rat; settings: AlCl3-induced AD rats
Experimental: as §1, §2

[12] = system: DA; assay: Brain DA level (fluorometric); format: in vivo, rat; settings: AlCl3-induced AD rats
Experimental: as §1, §3

[13] = system: BAX; assay: BAX gene expression (RT-qPCR); format: in vivo, rat; settings: AlCl3-induced AD rats
Experimental: as §1, §2

[14] = biological target: T1, AChE (Homo sapiens, UniProt P22303); assay: biochemical; settings: colorimetric kit, 412 nm
T1 construct: purchased BioVision K197-100
T1 sequence (P22303 32-614): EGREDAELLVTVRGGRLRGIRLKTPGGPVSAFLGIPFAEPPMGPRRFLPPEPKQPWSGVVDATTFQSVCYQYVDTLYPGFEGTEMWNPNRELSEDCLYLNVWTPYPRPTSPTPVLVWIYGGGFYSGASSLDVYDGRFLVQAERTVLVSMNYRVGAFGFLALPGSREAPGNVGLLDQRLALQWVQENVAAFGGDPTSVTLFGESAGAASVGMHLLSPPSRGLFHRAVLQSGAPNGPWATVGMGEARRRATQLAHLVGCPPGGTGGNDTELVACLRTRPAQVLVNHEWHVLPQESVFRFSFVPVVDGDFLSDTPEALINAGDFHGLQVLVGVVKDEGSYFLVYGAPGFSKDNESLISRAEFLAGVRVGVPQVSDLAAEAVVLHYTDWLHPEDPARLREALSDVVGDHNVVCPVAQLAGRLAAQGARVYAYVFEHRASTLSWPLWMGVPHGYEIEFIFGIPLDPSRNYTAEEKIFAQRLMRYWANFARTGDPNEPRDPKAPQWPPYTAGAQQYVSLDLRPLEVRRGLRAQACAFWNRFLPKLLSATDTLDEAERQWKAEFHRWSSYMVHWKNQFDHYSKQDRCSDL
Experimental: All newly created compounds were subjected to an AChE enzyme inhibitory screening. This was performed with the Colorimetric AChE Inhibitor Screening Kit (BioVision Catalog # K197-100). The 96-well assay kit provides a rapid, simple, and reliable way to screen for AChE inhibitors in large quantities. […] A completely transparent 96-well plate with a flat bottom was loaded with 10 µL of test inhibitors that were diluted (20×). […] A measure of 10 μL of diluted AChE was applied to each well that contained compounds, inhibitor control, and solvent control. […] Measures of 25 μL of AChE assay buffer, 5 μL of probe mix, and 10 μL of diluted AChE substrate were mixed to create the reaction mix. The reaction mix was mixed with the compound, enzyme control, and inhibitor control. […] The IC50 was calculated using nonlinear regression analysis using the response–concentration (log) curve.

[15] = system: BAX/Bcl-2; assay: BAX/Bcl-2 ratio of gene expression; format: in vivo, rat; settings: AlCl3-induced AD rats
Experimental: as §1, §2

[16] = system: AChE; format: in vivo; design: reduction in AChE levels: concentration or dose not given beside the values; settings: AlCl3-induced AD rats
[17] = mRNA expression in brain tissue, mean ± SE, n = 6
[18] = gene expression, mean ± SE, n = 6

**Q.** With COc1ccc(N2CC(=O)Oc3sc4c(c3C2=O)CCCCC4)cc1 [Compound 16, 4-(4-Methoxyphenyl)-3,4,7,8,9,10-hexahydro-6H-cyclohepta[4,5]thieno[3,2-f][1,4]oxa-zepine-2,5-dione] as the compound, how does the “elevation of Nrf-2 mRNA expression” value [1] read?
**A.** 2.9 fold

**Q.** And the Nrf-2 [1, 17]?
**A.** 0.47 ± 0.005 ^abc

**Q.** And the “decline in TNF-α levels” value [2]?
**A.** 51.6%

**Q.** And the “TNF-α (pg/g Tissue)” value ([2]; mean ± SE, n = 6)?
**A.** 85.17 ± 0.46 ^abc pg/g Tissue

**Q.** What about the “upregulation of Bcl-2 gene expression” value [3] of the same compound?
**A.** 5.2 fold

**Q.** What about the Bcl-2 [3, 18] of the same compound?
**A.** 0.63 ± 0.020 ^abc

**Q.** What about the “rise in the level of NE” value [4] of the same compound?
**A.** 2 times

**Q.** And the “NE (nmol/g Tissue)” value ([4]; brain tissue, mean ± SE, n = 6)?
**A.** 366.4 ± 1.52 ^abc nmol/g Tissue

**Q.** And the “elevation of HO-1 mRNA expression” value [5]?
**A.** 4.1 fold

**Q.** What about the HO-1 [5, 17] of the same compound?
**A.** 0.50 ± 0.020 ^abc

**Q.** What about the “SOD(U/g)” value [6] of the same compound?
**A.** 2.92 ± 0.20 ^abc U/g

**Q.** And the GSK3β [7]?
**A.** 2.18 ± 0.10 ^abc

**Q.** And the “reduction in MDA brain content” value [8]?
**A.** 72.8%

**Q.** What about the “MDA (nmol/g Tissue)” value ([8]; brain tissue, mean ± SE, n = 6) of the same compound?
**A.** 31.63 ± 0.05 ^abc nmol/g Tissue

**Q.** And the “elevation of β-catenin levels” value [9]?
**A.** 4.6 fold

**Q.** What about the “β-Catenin (ng/L)” value ([9]; mean ± SE, n = 6) of the same compound?
**A.** 7.34 ± 0.12 ^abc ng/L

**Q.** And the “improvement of TAC levels” value [10]?
**A.** 4.4 times

**Q.** And the “TAC (µmol/g Tissue)” value ([10]; brain tissue, mean ± SE, n = 6)?
**A.** 42.42 ± 0.84 ^abc µmol/g Tissue

**Q.** And the “elevation of Wnt3a levels” value [11]?
**A.** 5.5 fold

**Q.** What about the “Wnt3a (ng/g Tissue)” value ([11]; mean ± SE, n = 6) of the same compound?
**A.** 0.52 ± 0.01 ^abc ng/g Tissue

**Q.** And the “elevation of DA levels” value [12]?
**A.** 4.4 fold

**Q.** And the “DA (ng/g Tissue)” value ([12]; brain tissue, mean ± SE, n = 6)?
**A.** 52.96 ± 1.52 ^abc ng/g Tissue

**Q.** And the “suppression of BAX gene expression” value [13]?
**A.** 36.5%

**Q.** What about the BAX [13, 18] of the same compound?
**A.** 6.14 ± 0.090 ^abc

**Q.** What about the IC50 [14] of the same compound?
**A.** 0.76 ± 0.03 µM

**Q.** What about the “BAX/Bcl-2 Ratio” value [15] of the same compound?
**A.** 9.75

**Q.** And the “AChE (ng/g Tissue)” value ([16]; brain tissue, mean ± SE, n = 6)?
**A.** 16.83 ± 0.29 ^abc ng/g Tissue

**Q.** And the “reduction in AChE levels” value ([16]; brain)?
**A.** 75%
